In ChEMBL document CHEMBL1129092, “Structure-activity relationship study on N-glycosyl moieties through model building of DNA and ellipticine N-glycoside complex” (1996):
The source made the active and inactive calls. The rule behind the calls is not given here.

What was measured:
Mus musculus [1] = organism: Mus musculus; experiment: Compound was tested for antitumor activity against L1210 in mice; Active; type: functional, organism-based
L1210 = experiment: Antitumor activity against L1210 in mice, after ip administration at 30 mg/kg for 5 consecutive days, expressed as average % of life time in 6 mice, treated mice/control; type: functional, Mus musculus; settings: route intraperitoneal
Mus musculus [2] = organism: Mus musculus; experiment: Compound was tested for antitumor activity against L1210 in mice; Inactive; type: functional, organism-based

| Compound | Activity Score (Mus musculus [1]) | T/C (L1210) | Activity Score (Mus musculus [2]) |
| --- | --- | --- | --- |
| CO[C@H]1CO[C@@H]([n+]2ccc3c(C)c4[nH]c5ccc(O)cc5c4c(C)c3c2)[C@H](O)[C@H]1O.[Br-] | Active | 167% |  |
| CO[C@@H]1[C@@H](O)[C@H]([n+]2ccc3c(C)c4[nH]c5ccc(O)cc5c4c(C)c3c2)OC[C@@H]1O.[Br-] | Active | 169% |  |
| CO[C@@H]1[C@@H](O)[C@@H](O)CO[C@H]1[n+]1ccc2c(C)c3[nH]c4ccc(O)cc4c3c(C)c2c1.[Br-] |  | 123% | inactive |
| Cc1c2cc[n+]([C@@H]3OC[C@H](O)[C@H](O)[C@H]3O)cc2c(C)c2c1[nH]c1ccc(O)cc12.[Br-] | Active | >960% |  |
